Reference: ChEMBL document CHEMBL1177695, “Discovery and development of natural product-derived chemotherapeutic agents based on a medicinal chemistry approach” (J Nat Prod, 2010)
≈ marks a conversion by molar mass, not a printed value.

Experiments:
[1] = system: Human immunodeficiency virus 1; assay: Antiviral activity against HIV1 3B infected in H9 cells assessed as inhibition of viral replication by p24 antigen ELISA; type: functional, organism-based
[2] = Therapeutic index, ratio of IC50 for human H9 cells to EC50 for HIV 3B; type: cell-based; conditions: read-out: TI
KB [3] = assay: Cytotoxicity against human KB cells after 72 hrs by MTT assay; type: functional, cell-based; conditions: for EC50: read-out: ED50 (the source's name)
[4] = Cytotoxicity against human KB1 cells after 72 hrs by MTT assay; type: functional, cell-based; conditions: KB1, 72 h
[5] = Cytotoxicity against human KB-7d cells after 72 hrs by MTT assay; type: functional, cell-based; conditions: KB7D; for EC50: read-out: ED50 (the source's name)
KB [6] = assay: Cytotoxicity against human etoposide-resistant KB cells after 72 hrs by MTT assay
[7] = Cytotoxicity against human H9 cells after 4 days by coulter counter; type: cell-based; conditions: human, H9 cells; read-out: TI
A549 = assay: Cytotoxicity against human A549 cells after 3 days by sulforhodamine B assay; type: functional, cell-based; conditions: A549, 72 h
1A9 = assay: Cytotoxicity against human 1A9 cells after 3 days by sulforhodamine B assay; type: functional, cell-based; conditions: 1A9, 72 h
A-431 = assay: Cytotoxicity against human A431 cells after 3 days by sulforhodamine B assay; type: functional, cell-based; conditions: A-431, 72 h
HCT-8 = assay: Cytotoxicity against human HCT8 cells after 3 days by sulforhodamine B assay; type: functional, cell-based; conditions: HCT-8, 72 h
PC-3 = assay: Cytotoxicity against human PC3 cells after 3 days by sulforhodamine B assay; type: functional, cell-based; conditions: PC-3, 72 h
KB [8] = assay: Cytotoxicity against human KB cells after 3 days by sulforhodamine B assay; type: functional, cell-based; conditions: 72 h
[9] = Cytotoxicity against human KBVIN cells after 3 days by sulforhodamine B assay; type: functional, cell-based; conditions: 72 h
[10] = system: Human immunodeficiency virus 1; assay: Antiviral activity against HIV1 infected in human H9 cells after 4 days by p24 antigen ELISA; type: functional, organism-based; conditions: Human immunodeficiency virus 1, H9, 96 h
[11] = Therapeutic index, ratio of IC50 for human H9 cells to EC50 for HIV1; type: cell-based; conditions: read-out: TI
[12] = Inhibition of tubulin polymerization
[13] = Human immunodeficiency virus 1, 3B, H9, read-out: EC50

COc1cc2c(c(OC)c1OC)-c1c(cc3c(c1OC)OCO3)[C@H](OC(=O)c1ccccc1)[C@@](C)(O)[C@@H](C)C2 [GOMISIN G]
EC50 [1, 13]: 0.011 µM | selectivity ratio [2]: 600

COc1cc([C@@H]2c3cc4c(cc3[C@@H](Nc3ccc([N+](=O)[O-])cc3)[C@H]3COC(=O)[C@H]23)OCO4)cc(OC)c1O
IC50 (KB [3]): 0.49 µM | EC50 (KB [3]): 0.2 mg/L | IC50 [4]: 6.1 µM | IC50 [5]: 7.7 µM | EC50 [5]: 2 mg/L | IC50 (KB [6]): 3 µM

COc1cc2ccc3c(c2oc1=O)[C@@H](OC(=O)C12CCC(C)(C(=O)O1)C2(C)C)[C@@H](OC(=O)C12CCC(C)(C(=O)O1)C2(C)C)C(C)(C)O3 (stereo partly drawn)
selectivity ratio at 96 h [7]: > 15 | EC50 [1, 13]: 0.03 µM

COc1cc2c(c3oc(=O)ccc13)[C@@H](OC(=O)C13CCC(C)(C(=O)O1)C3(C)C)[C@@H](OC(=O)C13CCC(C)(C(=O)O1)C3(C)C)C(C)(C)O2 (stereo partly drawn)
selectivity ratio at 96 h [7]: > 15 | EC50 [1, 13]: 0.044 µM

C[C@@H]1C[C@H](O)[C@H](O)[C@@H](O[C@H]2CC[C@]3(C=O)[C@H]4CC[C@]5(C)[C@@H](c6ccc(=O)oc6)CC[C@]5(O)[C@@H]4CC[C@]3(O)C2)O1 [KALANCHOSIDE C]
IC50 (A549): 0.006 mg/L (≈ 0.011 µM) | IC50 (1A9): 0.012 mg/L (≈ 0.022 µM) | IC50 (A-431): 0.055 mg/L (≈ 0.101 µM) | IC50 (HCT-8): 0.045 mg/L (≈ 0.0823 µM) | IC50 (PC-3): 0.025 mg/L (≈ 0.0457 µM) | IC50 (KB [8]): 0.016 mg/L (≈ 0.0293 µM) | IC50 [9]: 0.026 mg/L (≈ 0.0476 µM)

COc1cc2ccc(=O)oc2c2c1OC(C)(C)[C@H](OC(=O)C13CCC(C)(C(=O)O1)C3(C)C)[C@@H]2OC(=O)C12CCC(C)(C(=O)O1)C2(C)C (stereo partly drawn)
EC50 ([1]; h9): Not Active

COC(=O)c1ccc(N[C@@H]2c3cc4c(cc3[C@@H](c3cc(OC)c(O)c(OC)c3)[C@H]3C(=O)OC[C@@H]32)OCO4)cc1
IC50 (KB [3]): 0.84 µM | IC50 [4]: 2.5 µM | IC50 [5]: 7 µM | IC50 (KB [6]): 3.3 µM

Cc1cn([C@H]2C[C@H](N=[N+]=[N-])[C@@H](CO)O2)c(=O)[nH]c1=O [ZIDOVUDINE]
EC50 [1, 13]: 0.044 µM

COc1cc2c(cc1O)[C@@H](Cc1ccc(O)cc1)NCC2
EC50 [1, 13]: 2.8 µM | selectivity ratio [2]: 125

C=C(C)[C@@H]1CC[C@]2(C(=O)O)CC[C@]3(C)[C@H](CC[C@@H]4[C@@]5(C)CC[C@H](OC(=O)COCC(=O)O)C(C)(C)[C@@H]5CC[C@]43C)[C@@H]12
IC50 [10]: 11.7 µM | selectivity ratio [11]: 1170

Cc1cc2c(c3oc(=O)ccc13)[C@@H](OC(=O)C13CCC(C)(C(=O)O1)C3(C)C)[C@@H](OC(=O)C13CCC(C)(C(=O)O1)C3(C)C)C(C)(C)O2 (stereo partly drawn)
selectivity ratio at 96 h [7]: > 16 | EC50 [1, 13]: 0.008 µM

COc1cc([C@@H]2c3cc4c(cc3[C@@H](Nc3ccc(F)cc3)[C@H]3COC(=O)[C@H]23)OCO4)cc(OC)c1O
IC50 (KB [3]): 0.67 µM | IC50 [4]: 4 µM | IC50 [5]: 8.3 µM | IC50 (KB [6]): 7.2 µM

CC(C)(O)[C@H](O)COc1c2occc2cc2ccc(=O)oc12 [HERACLENOL]
EC50 [1, 13]: 0.38 µM | selectivity ratio [2]: 870

Cc1cc2ccc3c(c2oc1=O)[C@@H](OC(=O)C12CCC(C)(C(=O)O1)C2(C)C)[C@@H](OC(=O)C12CCC(C)(C(=O)O1)C2(C)C)C(C)(C)O3 (stereo partly drawn)
EC50 ([1]; h9): Not Active

C[C@@H]1O[C@@H](O[C@H]2CC[C@]3(C=O)[C@H]4CC[C@]5(C)[C@@H](c6ccc(=O)oc6)CC[C@]5(O)[C@@H]4CC[C@]3(O)C2)[C@@H](O)[C@H](O)[C@@H]1O [KALANCHOSIDE B]
IC50 (A549): 0.001 mg/L (≈ 0.00178 µM) | IC50 (1A9): 0.007 mg/L (≈ 0.0124 µM) | IC50 (A-431): 0.022 mg/L (≈ 0.0391 µM) | IC50 (HCT-8): 0.015 mg/L (≈ 0.0267 µM) | IC50 (PC-3): 0.01 mg/L (≈ 0.0178 µM) | IC50 (KB [8]): 0.005 mg/L (≈ 0.00889 µM) | IC50 [9]: 0.013 mg/L (≈ 0.0231 µM)

COc1cc([C@@H]2c3cc4c(cc3[C@@H](NC3=CCC5(C=C3)OCCO5)[C@H]3COC(=O)[C@H]23)OCO4)cc(OC)c1O
IC50 (KB [3]): 0.68 µM | IC50 [4]: 0.5 µM | IC50 [5]: 1 µM | IC50 (KB [6]): 1.6 µM

CC1(C)Oc2ccc3ccc(=O)oc3c2[C@@H](OC(=O)C23CCC(C)(C(=O)O2)C3(C)C)[C@H]1OC(=O)C12CCC(C)(C(=O)O1)C2(C)C (stereo partly drawn)
selectivity ratio at 96 h [7]: > 16.1 | EC50 [1, 13]: 0.05 µM

C[C@]12CCC[C@]3(C(=O)OC1)[C@@H]2CC[C@@]12C[C@@H](CC[C@H]13)[C@](C)(O)C2 [NEOTRIPTERIFORDIN]
EC50 [1, 13]: 0.025 µM | selectivity ratio [2]: 125

COc1cc2c(c(OC)c1OC)-c1ccc(SC)c(=O)cc1C(=O)CC2 [THIOCOLCHICONE]
IC50 [12]: 0.76 µM

Cc1c(CBr)c(=O)oc2c3c(ccc12)OC(C)(C)[C@H](OC(=O)C12CCC(C)(C(=O)O1)C2(C)C)[C@@H]3OC(=O)C12CCC(C)(C(=O)O1)C2(C)C (stereo partly drawn)
EC50 [1, 13]: 0.00011 µM | selectivity ratio [2]: 186000

COc1cc([C@@H]2c3cc4c(cc3[C@@H](Nc3ccc(NC(=O)c5cc([N+](=O)[O-])cn5C)cc3)[C@H]3COC(=O)[C@H]23)OCO4)cc(OC)c1O
EC50 (KB [3]): 0.04 µM | EC50 [5]: 0.2 µM
